Assay results: ChEMBL document CHEMBL1137604, “Structure-activity relationship study on the 6-membered heteroaromatic ring system of diphenylpyrazine-type prostacyclin receptor agonists” (Bioorg Med Chem Lett, 2007)

What follows are molecules tested on Plasma (assay: Inhibition of ADP-induced platelet aggregation in human platelet rich plasma).

Question: For `CN(CCCCOCC(=O)O)c1ccc(-c2ccccc2)c(-c2ccccc2)n1`, which IC50 is on record?
Answer: 200 nM

Question: Which IC50 does the source give for `CN(CCCCOCC(=O)O)c1nnc(-c2ccccc2)c(-c2ccccc2)n1` here?
Answer: 1300 nM

Question: Which IC50 does the source give for `CN(CCCCOCC(=O)O)c1cc(-c2ccccc2)c(-c2ccccc2)cn1` here?
Answer: 1100 nM

Question: For `CN(CCCCOCC(=O)O)c1cnc(-c2ccccc2)c(-c2ccccc2)c1`, which IC50 is on record?
Answer: 800 nM

Question: Which IC50 does the source give for `CN(CCCCOCC(=O)O)c1cc(-c2ccccc2)c(-c2ccccc2)nn1` here?
Answer: 8600 nM

Question: Which IC50 does the source give for `CN(CCCCOCC(=O)O)c1ncc(-c2ccccc2)c(-c2ccccc2)n1` here?
Answer: 800 nM
